Data taken from US9528090B2, “Differentiation of human embryonic stem cells” (Janssen Biotech, Inc., priority 2010, dated 2016).

Tested on: human embryonic stem cells line H1
Assay: Definitive endoderm differentiation of H1 cells, cluster seeding: real-time PCR gene expression
Format: cell-based
Details: 1-100 ng/ml of insulin, BSA medium, day 4, real-time PCR
Procedure: Cells of the human embryonic stem cells line H1 (p40-p52) were cultured on MATRIGEL® (1:30 dilution) (BD Biosciences; Cat #356231)-coated dishes in MEF-CM (mouse embryonic fibroblast conditioned media) supplemented with 16 ng/ml of FGF2 (Catalog#100-18B, PeproTech, NJ), and differentiated into cells expressing markers characteristic of the definitive endoderm lineage as follows: • a. RPMI medium supplemented with 2% fatty acid-free BSA (Catalog#68700, Proliant, IA), and 100 ng/ml activin A (R&D Systems, MN) plus 20 ng/ml WNT-3a (Catalog#1324-WN-002, R&D Systems, MN) for one day, then • b. RPMI medium supplemented with 2% BSA and 100 ng/ml activin A for an additional three days.
In some of the cultures, the cells were treated with the following dilution of ITS-X (Catalogue#51500-056, Invitrogen, CA): 0, 1:10^6, 1:5×10^5, 1:10^5, 1:10^4. ITS-X is a serum replacement supplemented comprised of 1 mg/ml of Insulin, 0.55 mg/ml of Transferrin, 0.00067 mg/ml of Sodium Selenite, and 0.2 mg/ml of Ethanolamine The range of dilutions of ITS-X correspond to 0, 1 ng/ml, 2 ng/ml, 10 ng/ml, and 100 ng/ml of insulin. As a control, 0.2% FBS (Catalogue#SH30070.03, Hyclone, UT) was used for day 1 of differentiation, 0.5% FBS at day 2 and 2% FBS was used for days 3-4. The FBS treated cultures were not supplemented with ITS-X. […]

insulin was tested, and the “expression of markers of definitive endoderm (FOXA2, SOX17, CXCR4), mesenchyme (T), extraembryonic (SOX7, AFP)” value was “did not significantly affect”.
